Reference: ChEMBL document CHEMBL4052699, “Synthesis, in vitro and in vivo giardicidal activity of nitrothiazole-NSAID chimeras displaying broad antiprotozoal spectrum” (Bioorg Med Chem Lett, 2017)
Values joined by “and” are separate entries in the source; they are usually repeats but may differ in a detail not shown here. Equal values may be shown once.

Key:
Trichomonas vaginalis [1] = test: Antiprotozoal activity against Trichomonas vaginalis GT3 trophozoites incubated for 48 hrs; assay type: functional; settings: GT3, 48 h
Trichomonas vaginalis [2] = test: Potency index, ratio of IC50 for nitazoxanide to IC50 for test compound for antiprotozoal activity against Trichomonas vaginalis GT3 trophozoites incubated for 48 hrs; assay type: functional
Giardia intestinalis [3] = test: Antiprotozoal activity against Giardia intestinalis IMSS:0696:1 (genotype A) trophozoites incubated for 48 hrs; assay type: functional; settings: Giardia duodenalis
Trichomonas vaginalis [4] = test: Potency index, ratio of IC50 for metronidazole to IC50 for test compound for antiprotozoal activity against Trichomonas vaginalis GT3 trophozoites incubated for 48 hrs; assay type: functional
[5] = Selectivity index, ratio of CC50 for cytotoxicity against African green monkey Vero cells to IC50 for Trichomonas vaginalis GT3
Giardia intestinalis [6] = test: Potency index, ratio of ED50 for metronidazole to ED50 for test compound for antigiardial activity against Giardia intestinalis WB trophozoites infected in CD1 mouse dosed intragastrically 6 days after infection and measured 48 hrs post dose; assay type: functional, Giardia duodenalis
[7] = Selectivity index, ratio of CC50 for cytotoxicity against African green monkey Vero cells to IC50 for Leishmania mexicana MHOM/MX/ISETGS; assay type: toxicity, cell-based; settings: read-out: Ratio CC50/IC50
Leishmania amazonensis [8] = test: Antiprotozoal activity against Leishmania amazonensis IFLA/BR/67/PH-8 incubated for 72 hrs by Neubauer chamber based cell counting method; assay type: functional; settings: IFLA/BR/67/PH-8, 72 h
Giardia intestinalis [9] = test: Potency index, ratio of ED50 for nitazoxanide to ED50 for test compound for antigiardial activity against Giardia intestinalis WB trophozoites infected in CD1 mouse dosed intragastrically 6 days after infection and measured 48 hrs post dose; assay type: functional, Giardia duodenalis
Trypanosoma cruzi [10] = test: Antiprotozoal activity against Trypanosoma cruzi MHOM/MX/1994/Ninoa incubated for 72 hrs by Neubauer chamber based cell counting method; assay type: functional
Leishmania mexicana = test: Antiprotozoal activity against Leishmania mexicana MHOM/MX/ISETGS incubated for 72 hrs by Neubauer chamber based cell counting method; assay type: functional
Trypanosoma cruzi [11] = test: Potency index, ratio of IC50 for benznidazole to IC50 for test compound for antiprotozoal activity against Trypanosoma cruzi MHOM/MX/1994/Ninoa incubated for 72 hrs by Neubauer chamber based cell counting method; assay type: functional
[12] = Cytotoxicity against African green monkey Vero cells incubated for 24 to 48 hrs by SRB assay; assay type: cell-based; settings: chlorocebus sabaeus
[13] = Selectivity index, ratio of CC50 for cytotoxicity against African green monkey Vero cells to IC50 for Giardia intestinalis Giardia intestinalis IMSS:0696:1 (genotype A)
Giardia intestinalis [14] = test: Antigiardial activity against Giardia intestinalis WB trophozoites infected in CD1 mouse dosed intragastrically 6 days after infection and measured 48 hrs post dose; assay type: functional; settings: Giardia duodenalis, po
Giardia intestinalis [15] = test: Potency index, ratio of IC50 for nitazoxanide to IC50 for test compound for antiprotozoal activity against Giardia intestinalis IMSS:0696:1 (genotype A) trophozoites incubated for 48 hrs; assay type: functional, Giardia duodenalis
Leishmania amazonensis [16] = test: Potency index, ratio of IC50 for nitazoxanide to IC50 for test compound for antiprotozoal activity against Leishmania amazonensis IFLA/BR/67/PH-8 incubated for 72 hrs by Neubauer chamber based cell counting method; assay type: functional
Leishmania amazonensis [17] = test: Potency index, ratio of IC50 for pentamidine to IC50 for test compound for antiprotozoal activity against Leishmania amazonensis IFLA/BR/67/PH-8 incubated for 72 hrs by Neubauer chamber based cell counting method; assay type: functional
Giardia intestinalis [18] = test: Potency index, ratio of IC50 for metronidazole to IC50 for test compound for antiprotozoal activity against Giardia intestinalis IMSS:0696:1 (genotype A) trophozoites incubated for 48 hrs; assay type: functional, Giardia duodenalis

SMILES	IC50 (Trichomonas vaginalis [1]) [µM]	Ratio IC50 (Trichomonas vaginalis [2])	IC50 (Giardia intestinalis [3]) [µM]	Ratio IC50 (Trichomonas vaginalis [4])	Ratio CC50/IC50 [5]	Ratio ED50 (Giardia intestinalis [6])	selectivity ratio [7]	IC50 (Leishmania amazonensis [8]) [µM]	Ratio ED50 (Giardia intestinalis [9])	IC50 (Trypanosoma cruzi [10]) [µM]	IC50 (Leishmania mexicana) [µM]	Ratio IC50 (Trypanosoma cruzi [11])	CC50 [12] [µM]	Ratio CC50/IC50 [13]	ED50 (Giardia intestinalis [14])	Ratio IC50 (Giardia intestinalis [15])	Ratio IC50 (Leishmania amazonensis [16])	Ratio IC50 (Leishmania amazonensis [17])	Ratio IC50 (Giardia intestinalis [18])
CC(C)(Oc1ccc(Cl)cc1)C(=O)Nc1ncc([N+](=O)[O-])s1	0.032	2	0.172	10	686	50 - 300	6	3.43	50 - 300	12.2	16.6	2	22	127	0.00384 mg/kg and 0.0113 µmol/kg				
O=[N+]([O-])c1cncs1	52.9		29.6					> 50		> 50	> 50		441						
COc1ccc2c(c1)c(CC(=O)Nc1ncc([N+](=O)[O-])s1)c(C)n2C(=O)c1ccc(Cl)cc1	0.134		0.145		96	321	15	0.88	1015	> 50	6.77		13	89	0.00171 mg/kg and 0.00353 µmol/kg	8	8	16	38
COc1ccc2cc([C@H](C)C(=O)Nc3ncc([N+](=O)[O-])s3)ccc2c1	0.162		0.221		1112	50 - 300	49	3.64	50 - 300	12.9	25.5	2	180	815	0.00766 mg/kg and 0.0215 µmol/kg				
O=C(Cc1ccccc1Nc1c(Cl)cccc1Cl)Nc1ncc([N+](=O)[O-])s1	0.218		0.147					1.89		15.7	6.12	2				8			38
CC(C)Cc1ccc(C(C)C(=O)Nc2ncc([N+](=O)[O-])s2)cc1 (racemic)	0.045	1.7	0.227	7	4475	50 - 300	31	6.42	50 - 300	15	17.1	2	201	887	0.00399 mg/kg and 0.012 µmol/kg				
O=C(Cn1ccnc1[N+](=O)[O-])NCc1ccccc1 [BENZNIDAZOLE]								> 50			> 50								
Cc1ncc([N+](=O)[O-])n1CCO [METRONIDAZOLE]					1134		< 7	> 50		> 50	> 50			72					
CCCCCCCCCCCCCCCCOP(=O)([O-])OCC[N+](C)(C)C [MILTEFOSINE]	20		20					1.35		25.2	2.03		0.12						
CC1CS(=O)(=O)CCN1/N=C/c1ccc([N+](=O)[O-])o1 (stereo unspecified) [NIFURTIMOX]										7.45	3.1								
CC(=O)Oc1ccccc1C(=O)Nc1ncc([N+](=O)[O-])s1 [NITAZOXANIDE]							115					2			1.1 mg/kg and 3.58 µmol/kg				
N=C(N)c1ccc(OCCCCCOc2ccc(C(=N)N)cc2)cc1 [PENTAMIDINE]					12.3		3.2			> 50				11					
